According to patent publication EP1388586A2, “Identification of broadly reactive DR restricted epitopes” (priority 1998, dated 1999):
Read-outs that look alike come from different tables or passages of the source. Ends that are not written are not given here.

How the values were obtained:
DRB1*0701 (DR7) = DRB1*0701 (DR7) (Homo sapiens, UniProt P01903+P01911, A100R/A102G/A103Q/D57E/D86V/E43K/F76Y/K127E/L162R/M171V/P40G/Q125H/Q99D/R33Q/R42Y/R54Q/S133A/S66F/T210M/V115G/Y107V/Y59L/Y89S); assay: Class II peptide-binding assay, DR7;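 note: unlabeled peptides compete with an iodinated probe peptide for binding to affinity-purified HLA-DR at neutral pH, DR amount titered to bind a small tracer fraction, IC50 approximating Kd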
DRB10404 (DR4w14) = molecular target: T1, DRB10404 (DR4w14) (Homo sapiens, UniProt P01903+P01911, A100R/A169T/F76Y/I96L/K127E/L162R/M171V/N62H/P40V/Q125Y/R42H/S133A/S149N/S66Y/V209L/W38E); assay: Class II peptide-binding assay, DR4w14;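 note: unlabeled peptides compete with a radiolabeled probe for binding to affinity-purified HLA-DR, neutral pH, class II amount titrated to bind a small fraction of label, IC50 approximates Kd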
T1 construct: used as sources of human HLA class II molecules; endogenous in cells; host or cells: BIN40 (EBV-transformed homozygous B cell line)

DRB1*0401 (DR4w4) = molecular target: T2, DRB1*0401 (DR4w4) (Homo sapiens, UniProt P01903+P01911, A100K/A169T/F76Y/I96L/K127E/L162R/M171V/N62H/P40V/Q125Y/R42H/S133A/S149N/S66Y/V115G/V209L/W38E); assay: Class II peptide-binding assay, DR4w4;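 note: unlabeled test peptides compete with a radiolabeled probe peptide for binding to affinity-purified HLA-DR, with DR amount titrated to capture a small fraction of label, IC50 approximating Kd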
T2 construct: used as sources of human HLA class II molecules; endogenous in cells; host or cells: PREISS (EBV-transformed homozygous B cell line)

DRB5*0101 (DR2w2a) = molecular target: T3, DRB5*0101 (DR2w2a) (Homo sapiens, UniProt P01903+Q30154); assay: Class II peptide-binding assay, DR2w2a (DR2w2B2);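 note: competitive binding assay: unlabeled peptide inhibiting binding of a radiolabeled probe peptide to purified DR molecules at pH 7.0, IC50 approximating Kd, lower means stronger binding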
T3 construct: used as sources of human HLA class II molecules; endogenous in cells; host or cells: GM3107 (EBV-transformed homozygous B cell line)

DRB1*0101 (DR1) = molecular target: T4, DRB1*0101 (DR1) (Homo sapiens, UniProt P01903+P01911, A100R/D57E/F55L/F60I/F76Y/I96L/L162R/M171V/P40L/Q125E/R42F/V115G/Y59C); assay: Class II peptide-binding assay, DR1;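 note: competition assay: unlabeled test peptides inhibit binding of a radiolabeled probe peptide to purified DR, with half-maximal inhibition taken as an approximate dissociation constant Kd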
T4 construct: used as sources of human HLA class II molecules; endogenous in cells; host or cells: LG2 (EBV-transformed homozygous B cell line)
Experimental: Class II peptide-binding assays. […] These assays were chosen as to be representative of the most common DR alleles.
Radiolabeled peptides were iodinated using the chloramine-T method. […] In appropriate stoichiometric conditions, the IC50 of an unlabeled test peptide to the purified DR is a reasonable approximation of the affinity of interaction (Kd). Peptides were tested in two to four completely independent experiments. […] Final detergent concentration in the incubation mixture was 0.05% Nonidet P-40. Assays were performed at pH 7.0 with the exception of DR3, which was performed at pH 4.5, and DRw53, which was performed at pH 5.0.
All subsequent inhibition and direct binding assays were the performed using these class II concentrations.

DRB1*1101 (DR5w11) = molecular target: T5, DRB1*1101 (DR5w11) (Homo sapiens, UniProt P01903+P01911, A100R/A169T/A87E/I96F/K41T/L162R/M171V/P40S/Q125H/Q178H/Q39Y/Q99D/R42S/S66Y/T262R/V115G/W38E); assay: Class II peptide-binding assay, DR5w11;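 note: competition by unlabeled test peptide against iodinated probe peptide binding to affinity-purified HLA-DR, class II amount titrated beforehand, half-maximal inhibitory concentration read as approximate Kd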
T5 construct: used as sources of human HLA class II molecules; endogenous in cells; host or cells: SWEIG (EBV-transformed homozygous B cell line)
T5 sequence (P01903 26-254, other chains not shown): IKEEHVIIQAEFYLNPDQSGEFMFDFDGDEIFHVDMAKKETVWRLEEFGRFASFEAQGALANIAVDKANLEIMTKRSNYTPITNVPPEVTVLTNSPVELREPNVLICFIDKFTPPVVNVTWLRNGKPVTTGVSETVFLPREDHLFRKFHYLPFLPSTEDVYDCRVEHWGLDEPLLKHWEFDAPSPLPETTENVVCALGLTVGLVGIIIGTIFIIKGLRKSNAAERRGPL

[1] = read-out: DR7 nM (In IC50 Format), purified HLA DR7
[2] = read-out: DR4w14 nM (In IC50 Format), purified HLA DR4w14
[3] = read-out: DR4w4 nM (In IC50 Format), purified HLA DR4w4
[4] = read-out: DR2w2B2 nM (In IC50 Format), purified HLA DR2w2β2
[5] = read-out: DR1 nM (In IC50 Format), purified HLA DR1
[6] = read-out: DR5w11 nM (In IC50 Format), purified HLA DR5w11
[7] = purified HLA DR7, read-out: DR7 nM (In IC50 Format)
[8] = purified HLA DR4w14, read-out: DR4w14 nM (In IC50 Format)
[9] = purified HLA DR4w4, read-out: DR4w4 nM (In IC50 Format)
[10] = purified HLA DR2w2β2, read-out: DR2w2B2 nM (In IC50 Format)
[11] = purified HLA DR1, read-out: DR1 nM (In IC50 Format)
[12] = purified HLA DR5w11, read-out: DR5w11 nM (In IC50 Format)

AFAAAATLKA-NH2 [Peptide 770.01]
IC50 (DRB1*0701 (DR7); [1]): 694 nM
IC50 (DRB10404 (DR4w14); [2]): 357 nM
IC50 (DRB1*0401 (DR4w4); [3]): 23.7 nM
IC50 (DRB5*0101 (DR2w2a); [4]): 43.1 nM
IC50 (DRB1*0101 (DR1); [5]): 78.1 nM
IC50 (DRB1*1101 (DR5w11); [6]): 250 nM

ARRLKAIYARRLK [Peptide 640.04]
IC50 (DRB1*0701 (DR7); read-out: In IC50 Format DR7, Table VIII): 29.2 nM
IC50 (DRB10404 (DR4w14); read-out: In IC50 Format DR4w14, Table VIII): 667 nM
IC50 (DRB1*0401 (DR4w4); read-out: In IC50 Format DR4w4, Table VIII): > 22500 nM
IC50 (DRB5*0101 (DR2w2a); read-out: In IC50 Format DR2w2β2, Table VIII): 8.7 nM
IC50 (DRB1*0101 (DR1); read-out: In IC50 Format DR1, Table VIII): 3.6 nM
IC50 (DRB1*1101 (DR5w11); read-out: In IC50 Format DR5w11, Table VIII): 667 nM

Ac-AFAAAATLKA-NH2 [Peptide 770.02]
IC50 (DRB1*0701 (DR7); [1]): 325 nM
IC50 (DRB10404 (DR4w14); [2]): 102 nM
IC50 (DRB1*0401 (DR4w4); [3]): 21.4 nM
IC50 (DRB5*0101 (DR2w2a); [4]): 132 nM
IC50 (DRB1*0101 (DR1); [5]): 35.7 nM
IC50 (DRB1*1101 (DR5w11); [6]): 104 nM

CPIAIMSALAMVYLGAKDS [Peptide 705.04]
IC50 (DRB1*0701 (DR7); [1]): 1090 nM
IC50 (DRB10404 (DR4w14); [2]): 1140 nM
IC50 (DRB1*0401 (DR4w4); [3]): 882 nM
IC50 (DRB5*0101 (DR2w2a); [4]): 408 nM
IC50 (DRB1*0101 (DR1); [5]): 53.2 nM
IC50 (DRB1*1101 (DR5w11); [6]): 6670 nM

EALVRQGLAKVAYVYKPNN [NASE 101-]
IC50 (DRB1*0701 (DR7); read-out: DR7 nM, Table VIII, In IC50 Format): 454 nM
IC50 (DRB10404 (DR4w14); read-out: DR4w14 nM, Table VIII, In IC50 Format): 1140 nM
IC50 (DRB1*0401 (DR4w4); read-out: DR4w4 nM, Table VIII, In IC50 Format): 978 nM
IC50 (DRB5*0101 (DR2w2a); read-out: DR2w2B2 nM, Table VIII, In IC50 Format): 154 nM
IC50 (DRB1*0101 (DR1); read-out: DR1 nM, Table VIII, In IC50 Format): 2.2 nM
IC50 (DRB1*1101 (DR5w11); read-out: DR5w11 nM, Table VIII, In IC50 Format): 100 nM

INSWVESQTNGIIRNVLQPS [Peptide 732.01]
IC50 (DRB1*0701 (DR7); [1]): 269 nM
IC50 (DRB10404 (DR4w14); [2]): 269 nM
IC50 (DRB1*0401 (DR4w4); [3]): 166 nM
IC50 (DRB5*0101 (DR2w2a); [4]): 1330 nM
IC50 (DRB1*0101 (DR1); [5]): 385 nM
IC50 (DRB1*1101 (DR5w11); [6]): 6670 nM

KMYFNLINTKCYKLEH [Peptide 541.14]
IC50 (DRB1*0701 (DR7); Table VIII, read-out: In IC50 Format DR7): 269 nM
IC50 (DRB10404 (DR4w14); Table VIII, read-out: In IC50 Format DR4w14): 3570 nM
IC50 (DRB1*0401 (DR4w4); Table VIII, read-out: In IC50 Format DR4w4): 2140 nM
IC50 (DRB5*0101 (DR2w2a); Table VIII, read-out: In IC50 Format DR2w2β2): 103 nM
IC50 (DRB1*0101 (DR1); Table VIII, read-out: In IC50 Format DR1): 714 nM
IC50 (DRB1*1101 (DR5w11); Table VIII, read-out: In IC50 Format DR5w11): 250 nM

KYLATASTMDHARHGFLP [Peptide 765.02]
IC50 (DRB1*0701 (DR7); [1]): 157 nM
IC50 (DRB10404 (DR4w14); [2]): 86.5 nM
IC50 (DRB1*0401 (DR4w4); [3]): 100 nM
IC50 (DRB5*0101 (DR2w2a); [4]): 10000 nM
IC50 (DRB1*0101 (DR1); [5]): 50000 nM
IC50 (DRB1*1101 (DR5w11); [6]): 5000 nM

LMQYIKANSKFIGITE [Peptide 812.03]
IC50 (DRB1*0701 (DR7); [7]): 11.9 nM
IC50 (DRB10404 (DR4w14); [8]): 65.8 nM
IC50 (DRB1*0401 (DR4w4); [9]): 150 nM
IC50 (DRB5*0101 (DR2w2a); [10]): 4.9 nM
IC50 (DRB1*0101 (DR1); [11]): 13.2 nM
IC50 (DRB1*1101 (DR5w11); [12]): 13.9 nM

MQYIKANSKFIGITE [Peptide 812.05]
IC50 (DRB1*0701 (DR7); [7]): 7.8 nM
IC50 (DRB10404 (DR4w14); [8]): 84.5 nM
IC50 (DRB1*0401 (DR4w4); [9]): 229 nM
IC50 (DRB5*0101 (DR2w2a); [10]): 2.4 nM
IC50 (DRB1*0101 (DR1); [11]): 64.1 nM
IC50 (DRB1*1101 (DR5w11); [12]): 6.7 nM
